{
  "source": "patent US7141428B2",
  "about": "(priority 2000, dated 2006)",
  "origin": "cited, not measured here",
  "key": {"growth cone collapse": {"system": "growth cone collapse", "conditions": "collapse induced by activation of Rho or ROK"}, "[1]": {"molecular_target": "Rho kinase (Rho-associated protein kinase, p160ROCK) (Homo sapiens, UniProt Q13464)", "sequence (Q13464 whole entry, looked up)": "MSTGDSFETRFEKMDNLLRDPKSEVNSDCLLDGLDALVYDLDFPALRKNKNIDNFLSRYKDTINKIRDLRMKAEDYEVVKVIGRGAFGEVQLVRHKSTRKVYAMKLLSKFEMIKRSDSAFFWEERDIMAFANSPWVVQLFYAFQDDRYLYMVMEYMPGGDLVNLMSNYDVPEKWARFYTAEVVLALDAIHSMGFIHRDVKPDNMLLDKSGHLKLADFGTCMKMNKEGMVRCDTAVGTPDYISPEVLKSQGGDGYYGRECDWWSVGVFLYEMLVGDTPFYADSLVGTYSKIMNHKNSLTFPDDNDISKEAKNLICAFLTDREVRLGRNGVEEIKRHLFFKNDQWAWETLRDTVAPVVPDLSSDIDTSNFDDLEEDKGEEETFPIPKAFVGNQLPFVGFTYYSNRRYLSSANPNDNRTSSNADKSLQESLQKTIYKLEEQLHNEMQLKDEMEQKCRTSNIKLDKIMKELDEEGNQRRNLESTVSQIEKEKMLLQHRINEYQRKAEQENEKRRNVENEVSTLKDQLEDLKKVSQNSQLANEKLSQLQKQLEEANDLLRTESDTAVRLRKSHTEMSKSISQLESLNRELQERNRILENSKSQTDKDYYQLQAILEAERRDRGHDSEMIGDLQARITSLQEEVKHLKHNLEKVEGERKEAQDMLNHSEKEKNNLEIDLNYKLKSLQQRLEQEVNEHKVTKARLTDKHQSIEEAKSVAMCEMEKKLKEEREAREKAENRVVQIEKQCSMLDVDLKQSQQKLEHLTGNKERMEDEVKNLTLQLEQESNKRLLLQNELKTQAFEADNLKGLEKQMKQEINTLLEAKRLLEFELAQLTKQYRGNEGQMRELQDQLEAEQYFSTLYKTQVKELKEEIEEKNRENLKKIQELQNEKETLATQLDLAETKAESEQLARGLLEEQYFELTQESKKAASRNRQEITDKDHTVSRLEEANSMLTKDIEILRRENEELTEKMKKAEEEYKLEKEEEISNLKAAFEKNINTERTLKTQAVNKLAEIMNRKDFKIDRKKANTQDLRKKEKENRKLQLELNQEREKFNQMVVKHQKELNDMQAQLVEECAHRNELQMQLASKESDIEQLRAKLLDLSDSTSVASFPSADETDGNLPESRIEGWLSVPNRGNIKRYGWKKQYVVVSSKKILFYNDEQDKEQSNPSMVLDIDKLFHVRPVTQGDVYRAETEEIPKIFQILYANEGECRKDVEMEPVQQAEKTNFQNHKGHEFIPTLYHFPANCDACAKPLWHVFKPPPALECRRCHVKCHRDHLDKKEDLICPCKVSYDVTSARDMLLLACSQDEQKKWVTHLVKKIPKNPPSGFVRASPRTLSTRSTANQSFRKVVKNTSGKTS"}},
  "data": [
    {"smiles": "C[C@@H](N)[C@H]1CC[C@H](C(=O)Nc2ccncc2)CC1", "note": "[Y-27632, (R)-(+)-trans-N-(4-pyridyl)-4-(1-aminoethyl)-cyclohexanecarboamide]", "values": [
      {"measurement": "prevention of growth cone collapse", "setting": "growth cone collapse", "value": "can be prevented"},
      {"measurement": "concentration at which Rho kinase is inhibited", "setting": "[1]", "value": "sub-micromolar"}
    ]}
  ]
}
